The values that follow come from patent US20150064289A1, “Raw Extract of a Sechium Edule Hybrid, Method for Extracting Same and Use Thereof for Formulations Having an Antineoplastic Effect” (priority 2012, published 2015).

In assay [1] the test system is L929. Put plainly: Apoptotic bodies by morphology (Giemsa), L929. It is filed as cell-based, mouse. The following applies: 48 hrs, Ara-C 5 μg/mL, mean ± standard deviation. Here is the method:
(§1) Once elapsed that time, cells were collected and placed on a slide; then were fixed with 1 mL of methanol and stained for 20 minutes with 10% Giemsa stain. Cells were observed under a microscope (Cari Zeiss, Primo Star, Germany) equipped with 100× objective lens. Morphological changes like decreased cell volume, chromatin condensation, loss of cell membrane regularity, were cytomorphological parameters evaluated in the formation of apoptotic bodies. 200 cells of each experiment were counted to obtain the percentage of normal and apoptotic cells.

In assay [2] the test system is WEHI-3. Put plainly: Apoptosis induction through DNA fragmentation (agarose gel). The following applies: WEHI-3 grown 48 hours, extract at IC50, FIG. 3.
Procedure: Apoptosis induction was evaluated through DNA fragmentation.
Assay [3] concerns normal bone marrow cells. Put plainly: Proliferation of normal bone marrow cells, crystal violet technique. It is filed as cell-based. The settings on record: normal mouse bone marrow cells; 5 µg/mL of citarabine; 5 days. On the procedure:
To determine the effect of the extract of Sechium edule hybrid named MH-387-07-GISeM” on tumor cells, HeLa cell lines, which are derived from adenocarcinoma of […] cervical epithelial tissue; cell line L929 derived from male mouse's fibrosarcoma of areolar and adipose subcutaneous connective […] tissue, WEHI-3 y K562 are lines derived from leukemia (liquid tumors) which are maintained in IMDM culture medium (Iscove's Modified Dulbecco's Medium). Tumor cells were cultured for 72 hours in 200 μL of culture medium and serum containing 0.0, 0.15, 0.3, 0.6, 1.2, 2.5 and 5 μg/mL of extract, and were evaluated by the crystal violet technique (FIG. 1). Cells were maintained in culture for 5 days after being stimulated with diverse doses of extract or Ara-C as a control (5 μM), and were evaluated by the crystal violet technique, FIG. 1, where a dose-response curve of the effect of H-387-07-GISeM extract on cell proliferation of lines EHI-3, HeLa, L929, and bone marrow cells was plotted. Values are the average of three tests with tree replicates. Lines above the bars indicate±standard deviation. * Significant difference (p<0.05) compared to control. […] On the other hand, normal bone marrow cells of mouse treated with […] achieve a proliferation of 60% compared to the control, but with 5 µg/mL of citarabine (Ara-c) it only reaches a 35%.

Assay [4] has as its system K-562. Put plainly: Cell viability by trypan blue exclusion, K-562. It is filed as cell-based. The following applies: K562. Here is the method: On the other hand, the cell viability was evaluated in order to determine that the extract only acts against tumor cells, for which purpose tumor cells were cultured for 72 hours under the above conditions in quantities of 200 μL of medium per well in 96-well, flat bottom, ultra-low adherence plates (Costar, Cambridge, Mass., USA) with various doses of extract.

Assay [5] deals with WEHI-3. Put plainly: Apoptotic bodies by morphology (Giemsa), WEHI-3. The assay is classed as cell-based, mouse. The settings on record: 48 hrs, Ara-C 5 μg/mL, mean ± standard deviation. On the procedure:
as §1

In assay [6] the test system is HeLa. The assay can be described thus: Apoptotic bodies by morphology (Giemsa), HeLa. The assay is classed as cell-based, human. The settings on record: 48 hrs, Ara-C 5 μg/mL, mean ± standard deviation. Here is the method:
as §1

For `Nc1ccn([C@@H]2O[C@H](CO)[C@@H](O)[C@@H]2O)c(=O)n1` [Ara-C, citarabine], the “% Apoptotic bodies” value in assay [1] amounted to 6 ± 1.4%; in assay [5] it was 61.5 ± 8.2%; in assay [6], 21 ± 0%. Moreover, the DNA fragmentation result in assay [2] is reported as “experiences DNA fragmentation”. Moreover, in assay [3], the “proliferation compared to the control” value worked out at 35%. Also, the effect on viability entry in assay [4] (Ara-c as worded in text) was “totally does so”.

As to `Cc1ccc(NC(=O)c2ccc(CN3CCN(C)CC3)cc2)cc1Nc1nccc(-c2cccnc2)n1` [imatinib], the viability at 1 µM in assay [4] (Homo sapiens, K-562, imatinib 1 μM (footnote), mean ± standard deviation) stood at 4%.
